From publication PMC6048956, “A Double-Blind, Placebo-Controlled Trial Demonstrating the Safety, Tolerability, and Pharmacokinetics of Single, Escalating Oral Doses of RTI-336” (Frontiers in Pharmacology, 2018)
Entries after “also recorded” stand apart in the source; their conditions may differ. Like-named read-outs stand apart in the source and are kept apart here.

Columns and labels:
[1] = test system: monkeys; conditions: acute and reversible with reduced dosing, preclinical toxicology; cited from earlier work
[2] = test system: rats; conditions: rats co-administered RTI-336 with cocaine, ref data on file; cited from earlier work
[3] = test system: mice; conditions: up to 75 mg/kg, preclinical toxicology; cited from earlier work
[4] = test system: dog; conditions: 3 mg/kg, 22 h after the dose, preclinical toxicology; cited from earlier work
[5] = Plasma pharmacokinetics after single oral doses of RTI-336 in healthy males; format: in vivo, human; conditions: for half-life / AUC(0-inf) / Cmax / Tmax: male, human, plasma; for half-life: po
Protocol: (§1) RTI-336-001 was a single-center, double-blind, placebo-controlled, and randomized clinical trial to evaluate the safety, tolerability, and PK of single, escalating oral doses of RTI-336 (0.3, 1, 3, 6, 12, and 20 mg) in 2 cohorts (lowest 3 doses and highest 3 doses) of healthy male participants. RTI-336 and placebo capsules were identical in appearance, and participants, care providers, and those assessing outcomes were blinded to study drug assignment. Each cohort was to be enrolled in 2 groups of 5 participants (randomized 4:1 drug:placebo independently at each dose); the second group was dosed 24 h after the first group, following a safety review of the first group. Each participant would receive up to 3 single, escalating oral doses (in periods 1, 2, and 3) of study drug under fasting conditions, with a minimum of 10 days between doses, and could only participate in one cohort. The number of participants is typical for first-in-man safety and PK studies, and the trial ran to completion.
Blood samples were obtained at 0.25, 0.5, 1, 1.5, 2, 3, 4, 6, 8, 12, 16, 24, 30, 36, and 48 h post-dose. Cumulative urine specimens were collected over the intervals 0–6, 6–12, 12–24, 24–36, and 36–48 h post-dose.

[6] = co-administration with morphine; ref data on file, RTI; cited from earlier work
[7] = preclinical toxicology; cited from earlier work
[8] = test system: rhesus monkey; parameters: method as in Carroll et al., 2006a,b; Carroll, 2007; Howell et al., 2007; conditions: rhesus monkey model, ref Carroll et al., 2006a,b, 2007, Howell et al.; cited from earlier work
[9] = molecular target: dopamine reuptake (Homo sapiens, UniProt Q01959); assay: Inhibition of dopamine reuptake; format: biochemical
Chain of dopamine reuptake (Q01959 whole entry): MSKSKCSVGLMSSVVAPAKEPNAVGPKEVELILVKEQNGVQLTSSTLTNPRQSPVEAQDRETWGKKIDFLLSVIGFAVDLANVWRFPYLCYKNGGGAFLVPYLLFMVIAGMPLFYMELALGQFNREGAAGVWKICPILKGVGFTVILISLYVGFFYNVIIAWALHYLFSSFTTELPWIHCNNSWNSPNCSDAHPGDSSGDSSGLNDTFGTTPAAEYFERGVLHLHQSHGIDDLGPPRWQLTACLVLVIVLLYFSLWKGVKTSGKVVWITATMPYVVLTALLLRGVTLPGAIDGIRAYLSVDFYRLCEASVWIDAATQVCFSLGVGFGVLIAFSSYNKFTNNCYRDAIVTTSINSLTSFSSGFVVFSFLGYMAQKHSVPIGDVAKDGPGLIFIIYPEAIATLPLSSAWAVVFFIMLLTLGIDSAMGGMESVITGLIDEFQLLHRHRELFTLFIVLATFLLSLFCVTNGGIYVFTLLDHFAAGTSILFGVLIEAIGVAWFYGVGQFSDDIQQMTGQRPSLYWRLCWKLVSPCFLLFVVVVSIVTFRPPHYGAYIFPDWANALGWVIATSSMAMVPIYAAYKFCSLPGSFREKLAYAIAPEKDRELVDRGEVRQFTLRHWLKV

[10] = co-administration with ethanol, ref data on file, RTI, cited from earlier work
[11] = test system: mice; assay: Preclinical toxicology, seizures in mice
[12] = test system: healthy male participants; assay: Safety and tolerability of single, escalating oral doses (trial RTI-336-001); format: in vivo, human; conditions: for serum total bilirubin elevation: day 3 post-dose
Protocol: as §1
Orthostatic vital signs (HR, systolic and diastolic blood pressure, and respiratory rate) were obtained pre-dose and at 1, 2, 4, 8, 12, 24, and 48 h post-dose. Body weight was measured at screening, on admissions to the clinic for dosing, and at 7 days following their final dose. Physical examinations of all major organ systems (including neurological examination) were performed at admission and at 48 h post-dose. Adverse events (AEs) were monitored from dosing until 8 days post-dose or resolution, whichever was longer.
Six-lead ECG telemetry was monitored from 15 min pre-dose until 8 h post-dose. Supine 12-lead ECGs were obtained pre-dose and at 1, 2, 4, 8, 12, 24, and 48 h post-dose.
Urine for urinalysis (bacteria, bilirubin, blood, glucose, ketones, leukocyte esterase, nitrite, pH, protein, red blood cells, specific gravity, urobilinogen, and WBC) was collected pre-dose and 48 h post-dose. Unfasted blood samples for chemistry (including troponin, albumin, alkaline phosphatase, ALT, AST, BUN, calcium, chloride, CK, creatinine, GGT, globulin, glucose, LDH, phosphorus, potassium, sodium, total bilirubin, total cholesterol, total protein, triglycerides, and uric acid) and hematology (basophils, eosinophils, Hct, Hgb, lymphocytes, RBC indices, monocytes, neutrophils, platelets, RBC, and WBC) were obtained on admission and fasted samples at 48 h post-dose.
The Mini Mental Status Examination (MMSE) ([Folstein et al., 1975]; [Malloy et al., 1997]) was performed on admission to the clinic and at 4 and 8 h post-dose.

[13] = test system: monkeys; conditions: 9 mg/kg/day, 14-day; cited from earlier work
[14] = test system: rat; parameters: method as in Carroll et al., 2006a,b; Carroll, 2007; Howell et al., 2007; conditions: rat model, ref Carroll et al., 2006a,b, 2007, Howell et al.; cited from earlier work
[15] = test system: rats; conditions: acute and reversible with reduced dosing, preclinical toxicology; cited from earlier work
[16] = single oral dose 1 mg, fasted, healthy males
[17] = single oral dose 3 mg, fasted, healthy males
[18] = single oral dose 6 mg, fasted, healthy males
[19] = single oral dose 12 mg, fasted, healthy males
[20] = single oral dose 20 mg, fasted, healthy males
[21] = humans, single oral doses up to 20 mg

Q: For `Cc1ccc(-c2cc([C@@H]3C4CCC(C[C@@H]3c3ccc(Cl)cc3)N4C)on2)cc1` (some centres unmarked) [RTI-336], which “central nervous system adverse effects” value [1] is on record?
A: central nervous system stimulation with hyperactivity and stereotypic behavior

Q: What about the “effect on acute toxicity of cocaine” value [2] of the same molecule?
A: no potentiation of the acute toxicity of cocaine

Q: What about the seizures [3] of the same molecule?
A: did not occur

Q: What about the seizures [4] of the same molecule?
A: observed only in one dog

Q: And the “dose proportionality of plasma drug exposure (AUC0-inf) and Cmax” value ([5]; 1-20 mg single oral dose range)?
A: increased in proportion to dose; also recorded: increased dose proportionally

Q: And the “time of peak plasma RTI-336 concentration” value ([5]; across 1-20 mg single oral dose levels, fasted)?
A: around 4 h

Q: What about the half-life ([5]; 1 mg, single oral dose 1 mg, fasted, healthy males, read-out: t1/2 (converted)) of the same molecule?
A: 5.44 h

Q: What about the half-life ([5]; 3 mg, single oral dose 3 mg, fasted, healthy males, read-out: t1/2 (converted)) of the same molecule?
A: 7.07 h

Q: What about the half-life ([5]; 6 mg, single oral dose 6 mg, fasted, healthy males, read-out: t1/2 (converted)) of the same molecule?
A: 17.9 h

Q: What about the half-life ([5]; 12 mg, single oral dose 12 mg, fasted, healthy males, read-out: t1/2 (converted)) of the same molecule?
A: 15.3 h

Q: And the half-life ([5]; 20 mg, across 6, 12 and 20 mg single oral doses, read-out: plasma half-life (converted))?
A: ~17 h

Q: What about the half-life ([5]; 20 mg, single oral dose 20 mg, fasted, healthy males, read-out: t1/2 (converted)) of the same molecule?
A: 18 h

Q: What about the AUC(0-inf) [5, 16] of the same molecule?
A: 3.8 ng·h/mL

Q: What about the Cmax [5, 16] of the same molecule?
A: 0.375 ng/mL

Q: And the Tmax [5, 16]?
A: 4.5 h

Q: And the AUC(0-inf) [5, 17]?
A: 12.3 ng·h/mL

Q: What about the Cmax [5, 17] of the same molecule?
A: 1.04 ng/mL

Q: And the Tmax [5, 17]?
A: 3.71 h

Q: What about the AUC(0-inf) [5, 18] of the same molecule?
A: 40.4 ng·h/mL

Q: What about the Cmax [5, 18] of the same molecule?
A: 3.26 ng/mL

Q: What about the Tmax [5, 18] of the same molecule?
A: 4.38 h

Q: And the AUC(0-inf) [5, 19]?
A: 63.1 ng·h/mL

Q: What about the Cmax [5, 19] of the same molecule?
A: 5.23 ng/mL

Q: What about the Tmax [5, 19] of the same molecule?
A: 3.67 h

Q: What about the AUC(0-inf) [5, 20] of the same molecule?
A: 115 ng·h/mL

Q: What about the Cmax [5, 20] of the same molecule?
A: 10.3 ng/mL

Q: And the Tmax [5, 20]?
A: 3.43 h

Q: What about the “effect on morphine-related analgesia” value [6] of the same molecule?
A: did not affect morphine-related analgesia

Q: And the “effect on weight loss” value [6]?
A: did increase weight loss

Q: What about the cardiovascular effects [7] of the same molecule?
A: low potential for prolonging QTc interval

Q: What about the cocaine self-administration [8] of the same molecule?
A: suppresses cocaine self-administration

Q: What about the IC50 [9] of the same molecule?
A: 23 nM

Q: What about the “effect on ethanol-related mortality” value [10] of the same molecule?
A: did not increase ethanol-related mortality

Q: What about the “effect on ethanol-induced incoordination” value ([10]; rota-rod performance) of the same molecule?
A: reduced ethanol-induced incoordination

Q: And the “highest seizure-free dose (75 mg/kg) relative to oral ED50 for spontaneous locomotor activity” value [11]?
A: 7.5 fold

Q: And the “serum total bilirubin elevation” value ([12]; 2 participants, transient and mild, resolved by day 8)?
A: < 1.5 × ULN

Q: What about the “effects on the MMSE” value ([12]; 4 and 8 h post-dose) of the same molecule?
A: No effects were observed

Q: And the “participants with AEs” value ([12]; cumulative dose 6 mg or greater)?
A: 4 of 11

Q: And the “participants with AEs” value ([12]; cumulative doses less than 6 mg)?
A: 3 of 10

Q: And the ECG abnormalities [12, 21]?
A: no ECG abnormalities

Q: What about the “behavioral stimulation (hyperactivity, stereotypic behavior)” value [12, 21] of the same molecule?
A: no such behavioral stimulation

Q: What about the Adverse events ([12]; participant S031, cohort 1, period 2, 1 mg) of the same molecule?
A: Body temperature decreased

Q: What about the Adverse events ([12]; participant S031, cohort 1, period 3, 3 mg, cumulative 4 mg) of the same molecule?
A: Body temperature decreased, chalazion

Q: What about the Adverse events ([12]; participant S038, cohort 1, following 3 mg, cumulative 3.3 mg, possibly related to study drug) of the same molecule?
A: Somnolence^b

Q: What about the “serum total bilirubin elevation” value ([12]; participant S046, 1 mg) of the same molecule?
A: 1.08 × ULN

Q: What about the total bilirubin ([12]; participant S046, 1 mg, day 3 post-dose (ULN 20.5; 13.68 pre-dose, 8.55 day 8)) of the same molecule?
A: 22.23

Q: What about the “serum total bilirubin elevation” value ([12]; participant S046, 3 mg) of the same molecule?
A: 1.001 × ULN

Q: What about the total bilirubin ([12]; participant S046, 3 mg, day 3 post-dose (6.84 pre-dose, 5.13 day 8)) of the same molecule?
A: 20.52

Q: What about the Adverse events ([12]; participant S059, cohort 2, 6 mg) of the same molecule?
A: Soft tissue inflammation

Q: And the “serum total bilirubin elevation” value ([12]; participant S069, 6 mg)?
A: 1.25 × ULN

Q: And the total bilirubin ([12]; participant S069, 6 mg, day 3 post-dose (10.26 pre-dose, 10.26 day 8))?
A: 25.65

Q: What about the Adverse events ([12]; participant S069, cohort 2, 6 mg, related to their activities, not to study drug) of the same molecule?
A: Blood creatine phosphokinase increased

Q: What about the Adverse events ([12]; participant S078, cohort 2, 6, 12, 20 mg, cumulative 38 mg) of the same molecule?
A: Nasal congestion, pharyngolaryngeal pain

Q: And the “effects on other chemistry or hematology, urinalysis, vital sign, or ECG results” value ([12]; single oral doses 0.3-20 mg)?
A: No systematic RTI-336 effects were observed

Q: And the tolerability ([12]; single oral doses 0.3-20 mg, healthy males)?
A: well-tolerated up to the maximum evaluated dose of 20 mg; also recorded: well-tolerated at single doses of up to 20 mg; also recorded: free of significant side effects or toxicity

Q: What about the maximum tolerated dose ([12]; single oral doses up to 20 mg) of the same molecule?
A: not identified

Q: What about the hepatotoxicity [13] of the same molecule?
A: increased ALT activity and/or bilirubin and mild-to-moderate diffuse or centrilobular vacuolar degeneration in hepatocytes

Q: What about the cocaine self-administration [14] of the same molecule?
A: suppresses cocaine self-administration

Q: And the “central nervous system adverse effects” value [15]?
A: central nervous system stimulation with hyperactivity and stereotypic behavior
